Experimental data: paper PMC4001772 (The Journal of General Physiology, 2014)

Columns and labels:
Test in all cases: inside-out patch clamp of Xenopus oocytes
Type in all cases: cell-based
CFTR [1] = molecular target: T1, CFTR (Homo sapiens, UniProt P13569)
CFTR [2] = molecular target: CFTR (Homo sapiens, UniProt P13569, E1371S)
CFTR [3] = molecular target: CFTR (Homo sapiens, UniProt P13569, K1250A)
CFTR [4] = molecular target: T1, CFTR; remark: listed apart in the source

Sequence of CFTR (Homo sapiens, UniProt P13569, E1371S) (P13569 whole entry E1371S): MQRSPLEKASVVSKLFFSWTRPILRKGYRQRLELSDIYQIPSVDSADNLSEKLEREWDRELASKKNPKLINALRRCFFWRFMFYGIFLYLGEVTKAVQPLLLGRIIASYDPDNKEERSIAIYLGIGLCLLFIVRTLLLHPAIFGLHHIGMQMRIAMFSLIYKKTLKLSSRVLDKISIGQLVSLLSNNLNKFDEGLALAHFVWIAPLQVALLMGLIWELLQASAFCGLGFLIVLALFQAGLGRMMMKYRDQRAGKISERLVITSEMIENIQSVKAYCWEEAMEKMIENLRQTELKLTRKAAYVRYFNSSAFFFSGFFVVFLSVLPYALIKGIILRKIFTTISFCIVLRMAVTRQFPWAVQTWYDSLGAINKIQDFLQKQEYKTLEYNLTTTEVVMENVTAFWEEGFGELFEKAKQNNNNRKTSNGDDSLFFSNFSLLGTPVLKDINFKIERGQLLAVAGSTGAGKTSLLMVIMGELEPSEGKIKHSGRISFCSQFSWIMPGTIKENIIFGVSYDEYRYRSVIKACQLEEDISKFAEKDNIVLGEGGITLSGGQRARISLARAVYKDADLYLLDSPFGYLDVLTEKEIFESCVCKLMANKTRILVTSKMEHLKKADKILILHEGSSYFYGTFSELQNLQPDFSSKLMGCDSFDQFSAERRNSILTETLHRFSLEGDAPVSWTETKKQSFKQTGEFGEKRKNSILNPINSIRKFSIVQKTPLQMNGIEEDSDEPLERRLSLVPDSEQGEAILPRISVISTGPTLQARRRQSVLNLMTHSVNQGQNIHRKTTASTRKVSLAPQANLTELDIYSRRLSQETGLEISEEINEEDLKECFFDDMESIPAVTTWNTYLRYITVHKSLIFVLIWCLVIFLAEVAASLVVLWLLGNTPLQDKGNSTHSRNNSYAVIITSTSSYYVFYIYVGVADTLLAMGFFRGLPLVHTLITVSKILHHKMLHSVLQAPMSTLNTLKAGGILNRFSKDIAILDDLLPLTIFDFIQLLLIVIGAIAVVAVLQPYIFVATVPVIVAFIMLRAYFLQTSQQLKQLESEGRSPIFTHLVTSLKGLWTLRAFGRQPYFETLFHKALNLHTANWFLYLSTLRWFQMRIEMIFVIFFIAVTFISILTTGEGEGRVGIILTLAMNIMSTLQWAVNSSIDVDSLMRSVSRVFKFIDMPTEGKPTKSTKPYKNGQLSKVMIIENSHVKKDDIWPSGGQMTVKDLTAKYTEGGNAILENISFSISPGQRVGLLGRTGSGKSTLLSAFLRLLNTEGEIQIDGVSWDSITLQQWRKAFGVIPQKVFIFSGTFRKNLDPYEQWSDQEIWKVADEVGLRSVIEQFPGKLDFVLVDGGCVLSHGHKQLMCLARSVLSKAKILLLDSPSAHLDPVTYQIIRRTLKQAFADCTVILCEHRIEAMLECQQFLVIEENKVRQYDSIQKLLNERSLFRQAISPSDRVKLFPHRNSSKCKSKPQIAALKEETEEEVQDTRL
T1 sequence (P13569 whole entry): as the sequence (P13569 whole entry E1371S) above, with S1371E counted along it
Sequence of CFTR (Homo sapiens, UniProt P13569, K1250A) (P13569 whole entry K1250A): as the sequence (P13569 whole entry E1371S) above, with K1250A, S1371E counted along it

Row | SMILES | Ki (CFTR [1]) | Ki (CFTR [2]) | EC50 (CFTR [3]) | EC50 (CFTR [4])
1 | O=S(=O)(O)CCCN1CCOCC1 [MOPS] | ~15000 µM | ~8000 µM | – | –
2 | O=C(O)c1cc([N+](=O)[O-])ccc1NCCCc1ccccc1 [NPPB, 5-nitro-2-(3-phenylpropylamino)benzoate] | – | ~20 µM | ~100 µM | ~90 µM
